In article PMC3407795 (EJNMMI Research, 2012):
Like-named read-outs stand apart in the source and are kept apart here.

Key:
[1] = Metabolism in blood (in vivo stability); design: species or system mouse; details: healthy male Swiss albino mice, blood collected 5 min after iv injection (3 nmol), RP-HPLC radioanalysis
Description: The animals were kept for 5 min in cages with free access to water. They were sacrificed by cardiac puncture under ether anesthesia, and blood was withdrawn with a syringe and immediately placed in a pre-chilled EDTA-containing polypropylene vial on ice. Blood samples were centrifuged at 2,000 × g at 4 °C for 10 min.

[2] = Biodistribution in HEK293-hsst5+ tumor-bearing mice; format: in vivo; details: mouse, iv, total radioactivity, HEK293-hsst5+ tumor SCID mice, 4 h pi, mean ± SD
Description: (§1) In the flanks of SCID mice, inocula (150 μL) containing a suspension of 1.8 × 10^7 HEK293-hsst2A^+, -hsst3^+ or -hsst5^+ cells in PBS were subcutaneously injected. Tumors of substantial size were grown within 3 weeks, whereupon biodistribution experiments were performed.
(§2) The in vivo data presented as mean %ID/g ± SD (n ≥ 4) were statistically analyzed with Student’s t test (Prism^TM 2.01, GraphPad Software, San Diego, CA, USA). Analyses were 2-tailed, and a P value < 0.05 was considered statistically significant.

[3] = Biodistribution in healthy mice; format: in vivo; details: male, mouse, total radioactivity, healthy Swiss albino mice
Description: In the in vivo receptor blockade animal group, excess Tate (50 nmol) was administered intravenously (iv) together with the radioligand. Animals were sacrificed in groups of four at 4- and 24-h time points post injection (pi). […] Tissue distribution data were calculated as percent injected dose per gram (%ID/g) applying a suitable algorithm.
as §2

[4] = Biodistribution in AR4-2J tumor-bearing mice; format: in vivo; details: female, mouse, iv, total radioactivity, AR4-2J tumor SCID mice, 1 h pi, mean ± SD
[5] = Biodistribution in AR4-2J tumor-bearing mice; format: in vivo; details: female, mouse, iv, total radioactivity, AR4-2J tumor SCID mice, mean ± SD; for tissue uptake at 1 h: 1 h pi
Description: In the flanks of each of female SCID mice, inocula (150 μL) containing a suspension of 0.8 × 10^7 AR4-2J cells in PBS buffer were subcutaneously injected. […] Mice were sacrificed at 4 h pi, and biodistribution was studied as described above.
as §2

[6] = Biodistribution in HEK293-hsst3+ tumor-bearing mice; format: in vivo; details: mouse, iv, total radioactivity, HEK293-hsst3+ tumor SCID mice, 4 h pi, mean ± SD
Description: as §1, §2

[7] = Biodistribution in HEK293-hsst2A+ tumor-bearing mice; format: in vivo; details: mouse, iv, total radioactivity, HEK293-hsst2A+ tumor SCID mice, mean ± SD
Description: as §1, §2

[8] = blood, 10 pmol, read-out: Blood uptake
[9] = heart, 10 pmol, read-out: Heart uptake
[10] = intestines, 10 pmol total peptide, read-out: Intestines uptake
[11] = 10 pmol, read-out: Tumor uptake
[12] = kidneys, 10 pmol, read-out: Kidneys uptake
[13] = liver, 10 pmol, read-out: Liver uptake
[14] = muscle, 10 pmol total peptide, read-out: Muscle uptake
[15] = pancreas, 10 pmol, read-out: Pancreas uptake
[16] = spleen, 10 pmol total peptide, read-out: Spleen uptake
[17] = stomach, 10 pmol, read-out: Stomach uptake
[18] = femur, 10 pmol, read-out: Femur uptake
[19] = blood, 10 pmol, 4 h pi, read-out: Blood uptake
[20] = femur, 10 pmol, 4 h pi, read-out: Femur uptake
[21] = heart, 10 pmol, 4 h pi, read-out: Heart uptake
[22] = intestines, 10 pmol total peptide, 4 h pi, read-out: Intestines uptake
[23] = 10 pmol, 4 h pi, read-out: Tumor uptake
[24] = kidneys, 10 pmol, 4 h pi, read-out: Kidneys uptake
[25] = liver, 10 pmol, 4 h pi, read-out: Liver uptake
[26] = lung, 10 pmol total peptide, read-out: Lung uptake
[27] = lung, 10 pmol total peptide, 4 h pi, read-out: Lung uptake
[28] = muscle, 10 pmol total peptide, 4 h pi, read-out: Muscle uptake
[29] = pancreas, 10 pmol, 4 h pi, read-out: Pancreas uptake
[30] = spleen, 10 pmol total peptide, 4 h pi, read-out: Spleen uptake
[31] = stomach, 10 pmol, 4 h pi, read-out: Stomach uptake

intact radiopeptide detected in blood [1]: 6.5% | tissue uptake at 4 h [2, 8]: 0.1 ± 0.04 %ID/g | tissue uptake at 4 h [2, 9]: 0.15 ± 0.02 %ID/g | tissue uptake at 4 h [2, 10]: 1.54 ± 0.09 %ID/g | tissue uptake at 4 h [2, 11]: 0.41 ± 0.12 %ID/g | tissue uptake at 4 h [2, 12]: 24.1 ± 1.21 %ID/g | tissue uptake at 4 h [2, 13]: 1.1 ± 0.08 %ID/g | tissue uptake at 4 h ([2]; lung, 10 pmol, read-out: Lung uptake): 0.56 ± 0.28 %ID/g | tissue uptake at 4 h [2, 14]: 0.06 ± 0.01 %ID/g | tissue uptake at 4 h [2, 15]: 2.79 ± 0.4 %ID/g | tissue uptake at 4 h [2, 16]: 0.78 ± 0.07 %ID/g | tissue uptake at 4 h [2, 17]: 3.06 ± 0.73 %ID/g | tissue uptake at 4 h ([3]; kidney, 10 pmol total peptide, 4 h pi, iv 10 pmol, read-out: Kidney uptake): 22.9 %ID/g | tissue uptake at 24 h ([3]; kidney, 10 pmol total peptide, 24 h pi, iv 10 pmol): 7.6 %ID/g | tissue uptake at 4 h ([3]; pancreas, 10 pmol total peptide, 4 h pi, iv 10 pmol, read-out: Pancreas uptake): 2.9 %ID/g | tissue uptake at 4 h ([3]; pancreas, iv, 4 h pi + excess Tate (50 nmol), read-out: Pancreas uptake, sst2 blockade): 0.17 %ID/g | tissue uptake at 1 h [4, 8]: 1.34 ± 0.21 %ID/g | tissue uptake at 1 h [4, 18]: 0.49 ± 0.12 %ID/g | tissue uptake at 1 h [4, 11]: 3.05 ± 0.51 %ID/g | tissue uptake at 1 h [4, 16]: 0.84 ± 0.21 %ID/g | tissue uptake at 4 h [5, 19]: 0.19 ± 0.02 %ID/g | tissue uptake at 4 h ([5]; blood, 4 h pi + co-injection of 50 nmol Tate, read-out: Blood uptake, blocked): 0.26 ± 0.03 %ID/g | tissue uptake at 4 h [5, 20]: 0.4 ± 0.24 %ID/g | tissue uptake at 4 h ([5]; femur, 4 h pi + co-injection of 50 nmol Tate, read-out: Femur uptake, blocked): 0.19 ± 0.02 %ID/g | tissue uptake at 1 h [5, 9]: 0.67 ± 0.12 %ID/g | tissue uptake at 4 h [5, 21]: 0.18 ± 0.05 %ID/g | tissue uptake at 4 h ([5]; heart, 4 h pi + co-injection of 50 nmol Tate, read-out: Heart uptake, blocked): 0.17 ± 0.04 %ID/g | tissue uptake at 1 h [5, 10]: 1.98 ± 0.29 %ID/g | tissue uptake at 4 h [5, 22]: 1.92 ± 0.25 %ID/g | tissue uptake at 4 h ([5]; intestines, 4 h pi + co-injection of 50 nmol Tate, read-out: Intestines uptake, blocked): 0.77 ± 0.58 %ID/g | tissue uptake at 4 h [5, 23]: 1.82 ± 0.36 %ID/g | tissue uptake at 4 h ([5]; 4 h pi + co-injection of 50 nmol Tate, read-out: Tumor uptake, blocked): 0.21 ± 0.17 %ID/g | tissue uptake at 1 h [5, 12]: 23.8 ± 4.28 %ID/g | tissue uptake at 4 h [5, 24]: 21.1 ± 4.43 %ID/g | tissue uptake at 4 h ([5]; kidneys, 4 h pi + co-injection of 50 nmol Tate, read-out: Kidneys uptake, blocked): 24.4 ± 9.15 %ID/g | tissue uptake at 1 h [5, 13]: 1.27 ± 0.09 %ID/g | tissue uptake at 4 h [5, 25]: 0.95 ± 0.21 %ID/g | tissue uptake at 4 h ([5]; liver, 4 h pi + co-injection of 50 nmol Tate, read-out: Liver uptake, blocked): 1.02 ± 0.11 %ID/g | tissue uptake at 1 h [5, 26]: 2.05 ± 0.52 %ID/g | tissue uptake at 4 h [5, 27]: 1.43 ± 1.36 %ID/g | tissue uptake at 4 h ([5]; lung, 4 h pi + co-injection of 50 nmol Tate, read-out: Lung uptake, blocked): 3.3 ± 4.93 %ID/g | tissue uptake at 1 h [5, 14]: 0.22 ± 0.02 %ID/g | tissue uptake at 4 h [5, 28]: 0.06 ± 0.01 %ID/g | tissue uptake at 4 h ([5]; muscle, 4 h pi + co-injection of 50 nmol Tate, read-out: Muscle uptake, blocked): 0.07 ± 0.01 %ID/g | tissue uptake at 1 h [5, 15]: 7.35 ± 0.74 %ID/g | tissue uptake at 4 h [5, 29]: 5.13 ± 0.75 %ID/g | tissue uptake at 4 h ([5]; pancreas, 4 h pi + co-injection of 50 nmol Tate, read-out: Pancreas uptake, blocked): 0.15 ± 0.05 %ID/g | tissue uptake at 4 h [5, 30]: 1.1 ± 0.63 %ID/g | tissue uptake at 4 h ([5]; spleen, 4 h pi + co-injection of 50 nmol Tate, read-out: Spleen uptake, blocked): 0.61 ± 0.18 %ID/g | tissue uptake at 1 h [5, 17]: 3.23 ± 0.77 %ID/g | tissue uptake at 4 h [5, 31]: 1.81 ± 0.47 %ID/g | tissue uptake at 4 h ([5]; stomach, 4 h pi + co-injection of 50 nmol Tate, read-out: Stomach uptake, blocked): 0.18 ± 0.07 %ID/g | tissue uptake at 4 h [6, 8]: 0.19 ± 0.03 %ID/g | tissue uptake at 4 h [6, 18]: 0.23 ± 0.03 %ID/g | tissue uptake at 4 h [6, 9]: 0.15 ± 0.04 %ID/g | tissue uptake at 4 h [6, 10]: 2.39 ± 0.43 %ID/g | tissue uptake at 4 h [6, 11]: 1.24 ± 0.27 %ID/g | tissue uptake at 4 h [6, 12]: 23.4 ± 4.69 %ID/g | tissue uptake at 4 h [6, 13]: 1.02 ± 0.19 %ID/g | tissue uptake at 4 h [6, 26]: 0.68 ± 0.29 %ID/g | tissue uptake at 4 h [6, 14]: 0.06 ± 0.01 %ID/g | tissue uptake at 4 h [6, 15]: 3.33 ± 0.4 %ID/g | tissue uptake at 4 h [6, 16]: 0.82 ± 0.11 %ID/g | tissue uptake at 4 h [6, 17]: 3.41 ± 0.97 %ID/g | tissue uptake at 4 h [7, 19]: 0.23 ± 0.07 %ID/g | tissue uptake at 4 h ([7]; blood, 4 h pi + co-injection of 35 nmol DP2, read-out: Blood uptake, blocked): 0.66 ± 0.35 %ID/g | tissue uptake at 4 h [7, 20]: 0.24 ± 0.09 %ID/g | tissue uptake at 4 h ([7]; femur, 4 h pi + co-injection of 35 nmol DP2, read-out: Femur uptake, blocked): 0.21 ± 0.11 %ID/g | tissue uptake at 4 h [7, 21]: 0.22 ± 0.05 %ID/g | tissue uptake at 4 h ([7]; heart, 4 h pi + co-injection of 35 nmol DP2, read-out: Heart uptake, blocked): 0.38 ± 0.1 %ID/g | tissue uptake at 4 h [7, 22]: 2 ± 0.48 %ID/g | tissue uptake at 4 h ([7]; intestines, 4 h pi + co-injection of 35 nmol DP2, read-out: Intestines uptake, blocked): 1.74 ± 1.02 %ID/g | tissue uptake at 4 h [7, 23]: 1.49 ± 0.2 %ID/g | tissue uptake at 4 h ([7]; 4 h pi + co-injection of 35 nmol DP2, read-out: Tumor uptake, blocked): 0.27 ± 0.2 %ID/g | tissue uptake at 4 h [7, 24]: 23.2 ± 7.04 %ID/g | tissue uptake at 4 h ([7]; kidneys, 4 h pi + co-injection of 35 nmol DP2, read-out: Kidneys uptake, blocked): 25.5 ± 3.7 %ID/g | tissue uptake at 4 h [7, 25]: 1.31 ± 0.36 %ID/g | tissue uptake at 4 h ([7]; liver, 4 h pi + co-injection of 35 nmol DP2, read-out: Liver uptake, blocked): 0.963 ± 0.67 %ID/g | tissue uptake at 4 h [7, 27]: 1.37 ± 0.55 %ID/g | tissue uptake at 4 h ([7]; lung, 4 h pi + co-injection of 35 nmol DP2, read-out: Lung uptake, blocked): 0.47 ± 0.08 %ID/g | tissue uptake at 4 h [7, 28]: 0.07 ± 0.02 %ID/g | tissue uptake at 4 h ([7]; muscle, 4 h pi + co-injection of 35 nmol DP2, read-out: Muscle uptake, blocked): 0.07 ± 0.03 %ID/g | tissue uptake at 4 h [7, 29]: 5.73 ± 1.28 %ID/g | tissue uptake at 4 h ([7]; pancreas, 4 h pi + co-injection of 35 nmol DP2, read-out: Pancreas uptake, blocked): 0.16 ± 0.1 %ID/g | tissue uptake at 4 h [7, 30]: 0.46 ± 0.11 %ID/g | tissue uptake at 4 h ([7]; spleen, 4 h pi + co-injection of 35 nmol DP2, read-out: Spleen uptake, blocked): 0.5 ± 0.36 %ID/g | tissue uptake at 4 h [7, 31]: 1.96 ± 0.53 %ID/g | tissue uptake at 4 h ([7]; stomach, 4 h pi + co-injection of 35 nmol DP2, read-out: Stomach uptake, blocked): 1.29 ± 0.36 %ID/g
SMILES: C[C@H](NC(=O)CN1CCN(CC(=O)O)CCN(CC(=O)O)CCN(CC(=O)O)CC1)C(=O)NCC(=O)N[C@H]1CSSC[C@@H](C(=O)O)NC(=O)[C@H](CO)NC(=O)[C@H]([C@@H](C)O)NC(=O)[C@H](Cc2ccccc2)NC(=O)[C@H]([C@@H](C)O)NC(=O)[C@H](CCCCN)NC(=O)[C@@H](Cc2c[nH]c3ccccc23)NC(=O)[C@H](Cc2ccccc2)NC(=O)[C@H](Cc2ccccc2)NC(=O)[C@H](CC(N)=O)NC(=O)[C@H](CCCCN)NC1=O [[^111In]AT2S, metal not drawn]
